# According to patent US5399371A, “Low calorie substitute for an edible oil” (Henkel Corporation, priority 1993, dated 1995):
# Columns and labels:
# [1] = rat, in vivo
# [2] = system: porcine pancreatic lipase; test: Lipase assay: resistance to hydrolysis by porcine pancreatic lipase; format: in vitro ADME; settings: pig, pH 8
# Method: The polyglycerols in Examples III, IV, V, VI, VII, X, XI were subjected to digestion by porcine pancreatic lipase to test for resistance to hydrolysis. This test is an indicator of resistance to digestion within a mammalian digestive system.
# Lipase Assay--The following materials and procedure were employed:
# 0.05M Tris-HCl buffered at pH=8.0 at 37° C.
# 60 mg porcine pancreatic lipase (Sigma Cat. No. L3126) to 5.0 ml of the above L-histidine solution.
# Olive oil is used as a standard in these assays. The olive oil is from Sigma, cataloque number 01500.
# 1. Weigh 0.2000 grams of standard or sample into each of three 125 ml Erlenmeyer flasks.
# 2. To each flask add 8.0 ml of Salts solution, and 1.0 ml of the 0.05M Tris-HCl solution. Stopper each flask and place them in a shaker water bath equilibrated to 37° C. Commence agitation at 250 rpm. A New Brunswick shaker water bath was used throughout this study.
# 3. After the samples have equilibrated to temperature, 15-20 minutes, add 1.0 ml of enzyme to each of two flasks and 1.0 ml of histidine solution to the third flask as a blank. Stagger the addition to each flask by at least 30 seconds. The third flask in each set is the sample blank, which accounts for any free acids in the sample. Reactions should run both for 1 hour and 18 hours.
# 4. When reaction time has expired, add 50 ml of isopropanol to each flask. Prior to titration with 0.05-0.10N KOH in methanol, add a few drops of 1% phenolphthalein in ethanol to each flask. The exact concentration of .the potassium hydroxide solution should be standardized using KHP, potassium hydrogen phthalate. Titrate each flask to the pink endpoint and record the amount of base required to neutralize the sample. If solubility is a problem, warm sample slightly in a water bath prior to titration.
# 5. For olive oil, the % hydrolysis for each sample will be the mmoles KOH divided by the mmoles fatty acids available×(times) 100. An average molecular weight for olive oil of 880 g/mole can be used The corrected % hydrolysis is the % hydrolysis for the lipase-treated sample minus the % hydrolysis for the blank. For more heterogeneous samples (complex esters), the % hydrolysis can be calculated as the (AV/SAP Value)×100. The AV for each sample is (mmole KOH sample--mmole KOH blank) (56 mg KOH/mmole)/sample weight in grams. The saponification value can be determined using a method such as A.O.C.S. Official Method Cd 3-25. It is defined as the mg KOH required to saponify a gram of sample. The % hydrolysis can then be determined by taking a ratio of the measured AV after lipase treatment/SAP VALUE 100.
# [3] = in vivo; cited from earlier work
Substance,% Digested in Rats [1] [%],Percent Hydrolysis 1 hr. [2] [%],Percent Hydrolysis 18 hrs. [2] [%],absorption / hydrolysis and metabolism in rat feeding studies [3]
Polyglycerol polyoleate [Example VII],70,4.2,7.8,
Polyglycerol polyoleate [Example XI],50,0.5,5.3,
Propoxylated polyglycerol polyoleate [Example IV],26,2.7,2.3,
Propoxylated polyglycerol polytallowate [Example V],18,2.4,3.8,
decaglycerol dodecaoleate,,,,substantially absorbed
polyglycerol polyoleate [Example III],52,2.7,4.4,
